Structures are written as SMILES.

Broadly, the IC50 is the concentration that gives 50% inhibition.

NLRP3 inflammasome, sequence (Q96P20 whole entry, the tested form may be a part): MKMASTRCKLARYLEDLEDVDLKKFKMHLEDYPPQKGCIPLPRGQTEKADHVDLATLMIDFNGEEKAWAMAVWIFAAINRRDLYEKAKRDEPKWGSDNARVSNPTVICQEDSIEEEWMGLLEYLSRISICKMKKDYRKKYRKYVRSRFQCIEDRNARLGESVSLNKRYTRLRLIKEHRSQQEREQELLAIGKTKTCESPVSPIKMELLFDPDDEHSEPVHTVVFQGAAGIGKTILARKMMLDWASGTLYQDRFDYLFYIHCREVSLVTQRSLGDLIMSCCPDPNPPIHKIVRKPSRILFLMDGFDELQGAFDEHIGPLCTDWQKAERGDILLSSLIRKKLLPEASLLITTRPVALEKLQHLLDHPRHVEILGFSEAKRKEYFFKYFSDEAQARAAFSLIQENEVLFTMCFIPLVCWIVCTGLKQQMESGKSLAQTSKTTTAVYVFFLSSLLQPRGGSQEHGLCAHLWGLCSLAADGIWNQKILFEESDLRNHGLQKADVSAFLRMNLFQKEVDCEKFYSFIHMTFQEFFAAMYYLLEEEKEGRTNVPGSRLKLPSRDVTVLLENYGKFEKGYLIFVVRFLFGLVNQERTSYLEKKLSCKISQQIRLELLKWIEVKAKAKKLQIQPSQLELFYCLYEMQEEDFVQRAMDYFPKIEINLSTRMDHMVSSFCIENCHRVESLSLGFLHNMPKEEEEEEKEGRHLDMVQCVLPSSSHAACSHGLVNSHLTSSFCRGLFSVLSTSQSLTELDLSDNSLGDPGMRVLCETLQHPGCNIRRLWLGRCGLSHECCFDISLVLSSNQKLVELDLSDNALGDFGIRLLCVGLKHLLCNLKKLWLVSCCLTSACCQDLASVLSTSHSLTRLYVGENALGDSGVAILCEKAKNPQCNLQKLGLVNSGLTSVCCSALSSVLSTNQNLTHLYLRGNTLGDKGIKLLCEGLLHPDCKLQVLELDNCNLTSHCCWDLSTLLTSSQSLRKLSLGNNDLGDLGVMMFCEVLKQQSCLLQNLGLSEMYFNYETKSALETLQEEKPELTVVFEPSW

The target in this experiment is NLRP3 inflammasome (Homo sapiens, UniProt Q96P20). The experiment in a line: THP-1 ASC-GFP speck assay. It counts as cell-based. On the set-up: host or cells: THP-1 ASC-GFP cells, PMA-differentiated, LPS-primed, nigericin-stimulated. To be noted: THP-1 ASC-GFP cells, PMA differentiated, LPS primed, 10 μM nigericin; read-out: THP1 ASC Speck IC50. The protocol:
THP-1 ASC-GFP cell line was purchased from Invivogen, San Diego, for inflammasome activation assay. THP-1 ASC-GFP cells stably express a 37.6 kDa ASC::GFP fusion protein that enables monitoring of spec formation by microscopy after activation of NLRP3 dependent inflammasome pathway. Cells were maintained at a density of 600,000 cells/mL in growth media consisting of RPMI 1640, 2 mM L-glutamine, 25 mM HEPES and 10% heat inactivated fetal bovine serum at 37° C. and 5% CO2. Cells were passaged every 3-4 days and used for assays for up to 20 passages.
THP-1 ASC-GFP cells were collected by centrifuging cells at 800 RPM for 5 minutes. Cell culture supernatant was removed and cells were re-suspended in fresh media at density of 1×10^6 cells/mL in assay media consisting of RPMI 1640, 2 mM L-glutamine, 25 mM HEPES and 10% heat inactivated fetal bovine serum. Phorbol 12-myristate 13-acetate (PMA) (Invivogen, tlrl-pma) was added to the cell suspension at a final concentration of 500 ng/ml and mixed thoroughly. 40,000 cells were added per well of a 384 well plate and differentiated into macrophages overnight at 37° C. and 5% CO2. Cells were primed with 1 μg/mL of lipopolysaccharide (Invivogen Ultrapure lipopolysaccharide from E. coli, tlrl-3pelps) in assay media for 3 hours at 37° C. and 5% CO2. After priming, media was removed and THP-1 ASC-GFP cells were preincubated with serially diluted test compounds with starting concentration of 40 μM followed by 2-fold dilution for a 20-point curve or vehicle (DMSO) for 30 min in assay media at 37° C. and 5% CO2. Cells were then stimulated with 10 μM nigericin (Invivogen, tlrl-nig-5) for 90 min at 37° C. and 5% CO2 to activate NLRP3 dependent inflammasome pathway and spec formation. After stimulation, cells were fixed with 4.8% paraformaldehyde (Electron Microscopy Sciences #15710-S) and incubated at room temperature for 15 min. Cells were then washed 3-times with 100 μL of phosphate buffered saline and permeabilized in the presence of premeablization/block buffer for 20 min at room temperature. Cells were then washed 3-times with 100 μL phosphate buffered saline and incubated for 1 hr at room temperature in the presence of hoechst. After staining with Hoechst, cells were washed 3-times with 100 μL phosphate buffered saline and imaged for ASC spec formation.
THP-1 ASC-GFP cells were imaged in 488 and Hoechst channels. Hoechst channel was used for cell count and 488 channel was used to identify number of GFP ASC specks in imaged fields. Percentage of cells with a spec was calculated by dividing the number of GFP positive spots by total number of cells.
Consider `CC1CCc2cc3c(c(NC(=O)N=S(N)(=O)c4cnn5c4OCCC5)c21)CCC3` (single isomer, unassigned) [Example 126], for which the IC50 was above 20000 nM.

Turning to `CNC1COc2c(S(N)(=O)=NC(=O)Nc3c4c(c(F)c5c3CCC5)CCC4)cnn2C1` (single isomer, unassigned) [Example 83], the IC50 was 8 nM.

For the compound `CC(C)c1nn(CC2CC2)c(C(C)C)c1NC(=O)N=S(N)(=O)c1cnn2c1OCCC2` (single isomer, unassigned) [Example 114], the IC50 stood at 4400 nM.

On to `NS(=O)(=NC(=O)Nc1c2c(cc3c1CCC3)CCC2)c1cnn2c1COCCC2` (single isomer, unassigned) [Example 62], for which the IC50 amounted to 920 nM.

For `NS(=O)(=NC(=O)Nc1c2c(cc3c1CCC3)CCC2)c1cnn2c1NCCC2` (single isomer, unassigned) [Example 72], the IC50 is 2500 nM.

`COc1cc(-c2cc(F)cc(C(C)C)c2NC(=O)N=S(N)(=O)c2cnn3c2OCCC3)ccn1` (single isomer, unassigned) [Example 119]: the IC50 stood at 58 nM.

As to `CC1CCc2cc3c(c(NC(=O)N=S(N)(=O)c4cnn5c4OCCC5)c21)CCC3` (single isomer, unassigned) [Example 129], the IC50 came to 19 nM.

Turning to `CC1CCc2cc3c(c(NC(=O)N=S(N)(=O)c4cnn5c4OCC5)c21)CCC3` (single isomer, unassigned) [Example 146], the IC50 was found to be 2600 nM.

As to `CNC1CCOc2c(S(N)(=O)=NC(=O)Nc3c4c(cc5c3CCC5)CCC4)cnn2C1` (single isomer, unassigned) [Example 110], the IC50 was found to be 120 nM.

As to `NS(=O)(=NC(=O)Nc1c2c(cc3c1CCC3)CCC2)c1cnn2c1SCCC2` (single isomer, unassigned) [Example 101], the IC50 is above 20000 nM.

Turning to `CO[C@H]1CCOc2c([S@](=O)(=NC(=O)Nc3c4c(cc5c3CCC5)CCC4)NC#N)cnn2C1` (single isomer, unassigned) [Example 123], the IC50 stood at 120 nM.

As for `CC1CCc2cc3c(c(NC(=O)N=S(N)(=O)c4cnn5c4OCCC5)c21)CCC3` (single isomer, unassigned) [Example 127], the IC50 turned out to be 3300 nM.

Turning to `COC1COc2c(S(N)(=O)=NC(=O)Nc3c4c(cc5c3C(C)CC5)CCC4)cnn2C1` (single isomer, unassigned) [Example 147], the half-maximal inhibitory concentration (IC50) was above 20000 nM.

As to `CN1CCCn2ncc(S(N)(=O)=NC(=O)Nc3c4c(cc5c3CCC5)CCC4)c21` (single isomer, unassigned) [Example 107], the IC50 stood at 9000 nM.

For `CC(C)c1nn(CC2CC2)c(C(C)C)c1NC(=O)N=S(N)(=O)c1cnn2c1OCCC2` (single isomer, unassigned) [Example 113], the IC50 was above 20000 nM.

With `CC1(C)COc2c(S(N)(=O)=NC(=O)Nc3c4c(cc5c3CC(F)C5)CCC4)cnn2C1` (single isomer, unassigned) [Example 153], the IC50 was found to be 1400 nM.

In the case of `COc1cc(C(C)C)c(NC(=O)N=S(N)(=O)c2cnn3c2OCCC3)c(C(C)C)n1` (single isomer, unassigned) [Example 103], the 50% inhibitory concentration (IC50) is above 20000 nM.

Regarding `CNC1COc2c(S(N)(=O)=NC(=O)Nc3c4c(c(F)c5c3CCC5)CCC4)cnn2C1` (single isomer, unassigned) [Example 82], the IC50 was 270 nM.

On to `COC1CCOc2c(S(N)(=O)=NC(=O)Nc3c4c(cc5c3CCC5)CCC4)cnn2C1` (single isomer, unassigned) [Example 90], for which the IC50 came to 320 nM.

On to `CNC1CCn2ncc(S(N)(=O)=NC(=O)Nc3c4c(cc5c3CCC5)CCC4)c2OC1` (single isomer, unassigned) [Example 132], for which the IC50 was determined as 1200 nM.

With `CC1CCc2cc3c(c(NC(=O)N=S(N)(=O)c4cnn5c4OCC(C)(C)C5)c21)CCC3` (single isomer, unassigned) [Example 137], the IC50 worked out at 28 nM.

As to `COC1CCOc2c(S(N)(=O)=NC(=O)Nc3c4c(cc5c3CCC5)CCC4)cnn2C1` (single isomer, unassigned) [Example 88], the 50% inhibitory concentration (IC50) came out at 7700 nM.

(Values after patent publication US12234245B2, “Sulfonimidamide compounds as inhibitors of interleukin-1 activity” (Genentech, Inc., priority 2018, dated 2025).)
